Experiment [1] relates to C57BL/6 mice, bleomycin-induced pulmonary fibrosis. Kind of experiment: Bleomycin-induced pulmonary fibrosis in mice. It counts as in vivo. The arrangement: key to Collagen, improvement in BLM-induced alterations versus disease control / Alpha-Smooth Muscle Actin, improvement in BLM-induced alterations versus disease control / Body Weight, improvement in BLM-induced alterations versus disease control / Right Lung Weight, improvement in BLM-induced alterations versus disease control / Hydroxyproline, improvement in BLM-induced alterations versus disease control: + = >5-25% improvement vs disease control; ++ = >26-50% improvement vs disease control; +++ = >51-100% improvement v disease control; NS means not significant. Here is the method:
Lung fibrosis in C57BL/6 mice is induced by a single […] injection of the chemotherapy drug bleomycin. Mice are treated with vehicle or test compound. At termination (study day 28), one lung is weighed, with increased weight indicating more advanced fibrosis. Lung tissue is also homogenized for hydroxyproline, collagen, and TGF-β quantification. Lung tissue is also formalin-fixed and further processed for H&E, collagen morphometry, Ashcroft's score, and both α-SMA and TUNEL expression analyses. Plasma is analyzed by multiplex bead array for MMP-2, MMP-9, IL-1β, IL-6, IL-12, and TNF-α expression.
The experimental design described in Example B1 with the following changes was used to assess the ability of Compound 1a to reduce pulmonary fibrosis. Briefly, Male C57BL/6 mice (Envigo) […] were used. The mice were 3.5-4 months old and ˜24-30 g by weight. On day −1 animals were randomized based on body weight and the animals were assigned with a permanent number by ear notching. Cages were identified by cage cards indicating the study code, group number, sex, dose, cage number, number of animals and animal number details.
On day 0, all animals (except the sham control animals) were administered bleomycin (0.03 U in 50 μl normal saline) intratracheally (i.t.) under Ketamine+Xylazine anesthesia. The sham control animals were dosed with 50 μl of normal saline intratracheally. Pirfenidone was used as a positive control; this compound is known to downregulate growth factors and procollagens to reduce fibrosis and is an approved drug for the treatment of idiopathic pulmonary fibrosis.
Vehicle, pirfenidone and test Compound 1a dosing was initiated from day 3 to day 21 as described in the following Table 2. On day 21 whole blood was collected 1-hour post-dose into EDTA and then processed to plasma. Right lungs were then collected, weighed, snap frozen and later homogenized for biochemical analysis. Hydroxyproline, collagen and TGF-Beta levels were measured in the right lung homogenates.

Experiment [2] has as its system MRC-5 cells. Kind of experiment: TGFβ-stimulated αSMA expression in MRC-5 cells (HTRF). To be noted: for Significant reduction in αSMA via HTRF compared to TGFβ alone: TGFβ 1 ng/ml, 48 h. The format is cell-based. The arrangement: key to Significant reduction in αSMA via HTRF compared to TGFβ alone: NS = no statistically significant change in aSMA expression; + = p < 0.05; ++ = p < 0.01; +++ = p < 0.005; ++++ = p < 0.001. Here is the method:
In this study, pulmonary-derived immortalized fibroblasts, MRC-5 cells, were cultured as a model of the early transition to fibrosis, and αSMA expression was measured using an immunodetection system driven by homogenous time-resolved fluorescence (HTRF) technology. This detection system produces a fluorescent signal in the presence of αSMA in cell lysates. Cells were grown to confluence in 96-well culture plates in complete media, and then transitioned to serum-free media for 2 hours. Next TGFβ (final 1 ng/ml in serum-free media) was added to the cells to stimulate the fibrotic transition. After 2 hours, media containing either HGF or HGF combined with one of the compounds was added to the cells. After incubation for 48 hours, cells were lysed and processed for αSMA HTRF to detect the levels of αSMA expression and compared to TGFβ-stimulated cultures. Statistical analysis consisted of 1-way ANOVA with a Dunnett's multiple comparison's post-test.
(In general: In TR-FRET formats the signal depends on donor and acceptor labels being close together.)

[3] abbreviates: dose 100 mg/kg PO twice daily, right lung homogenate, day 21.

As to `Cc1ccc(=O)n(-c2ccccc2)c1` [Pirfenidone, reference compound], the “bleomycin-induced increases in TGF-β in right lung homogenates” value in experiment [1] (all doses, day 21) is “significantly protected against bleomycin-induced increases in TGF-β”. For the same compound, the “protection against bleomycin-induced body weight loss” value in experiment [1] (all treatment groups, over the study period) is listed as “did not protect against body weight loss”. Also, the “Body Weight, improvement in BLM-induced alterations versus disease control” value in experiment [1] (dose 100 mg/kg PO twice daily, days 3-21) is recorded as “NS”. The “Right Lung Weight, improvement in BLM-induced alterations versus disease control” value in experiment [1] (dose 100 mg/kg PO twice daily, days 3-21, day 21) is reported as “+ (+ = >5-25% improvement vs disease control)”. For the same compound, the “Alpha-Smooth Muscle Actin, improvement in BLM-induced alterations versus disease control” value in experiment [1] (dose 100 mg/kg PO twice daily, day 21) is “+ (+ = >5-25% improvement vs disease control)”. Moreover, in experiment [1] (setting [3]), the “Collagen, improvement in BLM-induced alterations versus disease control” value is “++ (++ = >26-50% improvement vs disease control)”; the “Hydroxyproline, improvement in BLM-induced alterations versus disease control” value is “NS”; the “TGF-Beta, improvement in BLM-induced alterations versus disease control” value is “+++ (+++ = >51-100% improvement v disease control)”. Moreover, the “alpha-smooth muscle actin morphometory” value in experiment [1] (other doses of Compound 1a, pirfenidone doses, day 21) was “insignificant decreases”.

Consider “HGF: Hepatocyte growth factor protein, added alone or with test compounds”, for which the “Significant reduction in αSMA via HTRF compared to TGFβ alone” value in experiment [2] (HGF 0.01 ng/ml alone) is “NS”; in experiment [2] (HGF 1 ng/ml alone), “NS”; in experiment [2] (HGF 10 ng/ml alone) it was “+++ (+++ = p < 0.005)”. Also, the “αSMA expression, HGF alone” value in experiment [2] (TGFβ-stimulated MRC-5 cells) is “significantly reduce αSMA expression at high (10 ng/ml) but not low (0.01 or 1 ng/ml) concentrations”.

These data come from patent US20250288587A1, “Methods of Treating Fibrosis” (Athira Pharma, Inc., priority 2022, published 2025).
